Measured values as given in patent publication US20090076067A1, “PHARMACEUTICAL COMPOSITION COMPRISING AZARHODACYANINE COMPOUND AS ACTIVE INGREDIENT” (priority 2005, published 2009).

System: Rat-derived L6 cells (rat skeletal myoblast cell)
Test: Rat L6 cell proliferation inhibition test
Format: cell-based
Settings: Alamar Blue

Structure (SMILES): CCN1C(=O)/C(=c2/s/c(=C3/C=CC=CN3C)c(=O)n2CC)S/C1=N\c1sc2cc(OC)ccc2[n+]1C [Compound B-28]
- EC50 cytotoxicity L6 (Table 1, 72 hours): 5.01 mg/L
- EC50 cytotoxicity L6 (Table 2, 72 hours): 5.01 mg/L
- EC50 cytotoxicity L6 (Table 3, 72 hours): 5.01 mg/L
- EC50 cytotoxicity L6 (Table 4, 72 hours): 5.01 mg/L

Structure (SMILES): CCN1C(=O)/C(=c2/s/c(=C3/SCCN3C)c(=O)n2CC)S/C1=N\c1sc2cc(OC)ccc2[n+]1C [Compound B-29]
- EC50 cytotoxicity L6 (Table 1, 72 hours): 1.98 mg/L
- EC50 cytotoxicity L6 (Table 2, 72 hours): 1.98 mg/L
- EC50 cytotoxicity L6 (Table 3, 72 hours): 1.98 mg/L
- EC50 cytotoxicity L6 (Table 4, 72 hours): 1.98 mg/L

Structure (SMILES): CCN1C(=O)/C(=c2/s/c(=C3/C=CC=CN3C)c(=O)n2CC)S/C1=N\c1sc2ccccc2[n+]1C [Compound B-30]
- EC50 cytotoxicity L6 (Table 1, 72 hours): 7.46 mg/L
- EC50 cytotoxicity L6 (Table 2, 72 hours): 7.46 mg/L
- EC50 cytotoxicity L6 (Table 3, 72 hours): 7.46 mg/L
- EC50 cytotoxicity L6 (Table 4, 72 hours): 7.46 mg/L

Structure (SMILES): CCN1C(=O)/C(=c2/s/c(=C3/SCCN3C)c(=O)n2CC)S/C1=N\c1sc2cc(F)ccc2[n+]1C [Compound B-33]
- EC50 cytotoxicity L6 (Table 1, 72 hours): 9.83 mg/L
- EC50 cytotoxicity L6 (Table 2, 72 hours): 9.83 mg/L
- EC50 cytotoxicity L6 (Table 3, 72 hours): 9.83 mg/L
- EC50 cytotoxicity L6 (Table 4, 72 hours): 9.83 mg/L

Structure (SMILES): CN1/C(=c2\s/c(=C\c3cccc[n+]3CCC(=O)O)n(CC3CO3)c2=O)Sc2ccccc21 (stereo not shown) [Compound S-3, reference compound]
- EC50 cytotoxicity L6 (Table 2, 72 hours): >90 mg/L
- EC50 cytotoxicity L6 (Table 3, 72 hours): >90 mg/L
- EC50 cytotoxicity L6 (Table 4, 72 hours): >90 mg/L
